Common to all, as to experiment: DTP human tumour cell line panel, 48 h
In assay [1] the test system is 786-0.
For assay [2], the system named is BT-549.
Assay [3] deals with CAKI-1.
The test system of assay [4] is HCT-116.
The subject of assay [5] is HCT-15.
The subject of assay [6] is HOP-92.
The test system of assay [7] is HT-29.
Assay [8] relates to IGROV-1.
Assay [9] deals with M14.
The test system of assay [10] is MDA-MB-435.
In assay [11] the test system is MDA-N.
Assay [12] has as its system Malme-3M.
Assay [13] deals with NCI-H226.
In assay [14] the test system is OVCAR-3.
The test system of assay [15] is OVCAR-4.
The subject of assay [16] is PC-3.
The test system of assay [17] is SF-295.
Assay [18] has as its system TK-10.
In assay [19] the test system is U-251.
Assay [20] deals with SR.

The structures appear in SMILES notation.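 1) Cells in 96-well plates. 2) Compound, 48 h, 5 concentrations. 3) Linear interpolation between surrounding doses. 4) Unreached endpoint = highest concentration. At the GI50, growth is halved.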 Activity calls are given as the source filed them. Rule as the data show it: active = GI50 up to about 1.1 µM and inactive = higher.

`Cc1ccc(C2=Nc3ccccc3SC(c3cccc([N+](=O)[O-])c3)C2)cc1` (stereo not given): the GI50 in assay [1] is 6.3 µM (inactive); in assay [2], 15.7 µM (inactive); in assay [3], 51.4 µM (inactive); in assay [4], 3.6 µM (inactive); in assay [5], 48.1 µM; in [6], 10.4 µM (inactive). The GI50 in [7] is 5.96 µM (inactive); in assay [8], 8.34 µM (inactive); in [9], 23.9 µM (inactive); in [10] it was 13.1 µM (inactive); in assay [11] it was 15.7 µM (inactive); in assay [12] it was 26.7 µM (inactive). Also, the GI50 was > 100 µM (inactive) in assay [13]; 8.59 µM (inactive) in assay [14]; 27.4 µM (inactive) in assay [15]; 10.2 µM (inactive) in assay [16]; 28.4 µM (inactive) in assay [17]; 14.5 µM (inactive) in assay [18]. Further, the GI50 in [19] was 4.59 µM (inactive).

As to `O=C(c1ccccc1)c1ccc2c(c1)nc1n2C(c2c(F)cccc2F)SC1` (stereo not given), the GI50 in assay [1] was 27.4 µM (inactive); in assay [2], 26.7 µM (inactive); in assay [3], 21.1 µM (inactive); in [4] it was 15 µM (inactive); in [5], 36.6 µM; in [6], 40.5 µM (inactive). Moreover, the GI50 in [7] was 13 µM (inactive); in [8], 52.4 µM (inactive); in assay [9] it was 20.8 µM (inactive); in assay [10] it was 27.3 µM (inactive); in assay [11], 19.7 µM (inactive); in assay [12], 31.2 µM (inactive). Further, the GI50 is 34.8 µM (inactive) in [13]; 19.9 µM (inactive) in assay [14]; 21.7 µM (inactive) in [15]; 16.3 µM (inactive) in [16]; 17.9 µM (inactive) in assay [17]; 39.2 µM (inactive) in [18]. For the same compound, the GI50 in assay [19] was 28.8 µM (inactive).

Consider `CC(C)(C)OC(=O)NC(Cc1ccccc1)OCc1ccccc1` (stereo not given), for which the GI50 in assay [1] is 17.2 µM (inactive); in assay [2], 23.3 µM (inactive); in assay [3] it was 19.6 µM (inactive); in [4], 17.9 µM (inactive); in [5], 19.4 µM; in assay [7], 21.1 µM (inactive). The GI50 in assay [8] was > 10 µM (inactive); in assay [9] it was 17.9 µM (inactive); in assay [10], 19.4 µM (inactive); in assay [11], 19.3 µM (inactive); in assay [12], 23.6 µM (inactive); in assay [13], 18.7 µM (inactive). Moreover, the GI50 was 23.2 µM (inactive) in assay [14]; 13.5 µM (inactive) in [16]; 16.6 µM (inactive) in [17]; 30.7 µM (inactive) in [20]; 19 µM (inactive) in assay [18]; > 10 µM (inactive) in assay [19].

Consider `CN(C)CCNC(=O)c1cccc(NC(=O)c2ccccc2)c1[N+](=O)[O-]`, for which the GI50 in assay [1] is > 100 µM (inactive); in assay [2] it was 53.8 µM (inactive); in assay [3], > 100 µM (inactive); in assay [4] it was > 100 µM (inactive); in assay [5], more than 100 µM; in assay [7], 25.5 µM (inactive). Moreover, the GI50 in assay [8] was > 100 µM (inactive); in [9] it was > 100 µM (inactive); in assay [10], > 100 µM (inactive); in assay [11], > 100 µM (inactive); in assay [12] it was 12.8 µM (inactive); in [13] it was > 100 µM (inactive). For the same compound, the GI50 in assay [14] is 27.7 µM (inactive); in assay [16], > 100 µM (inactive); in assay [17], > 100 µM (inactive); in assay [18], > 100 µM (inactive); in assay [19] it was > 100 µM (inactive).

For `CC(=O)SSC1(Cl)C(C)(C)C(Cl)(SSC(C)=O)C1(C)C` (stereo not given), the GI50 in [1] is 49.2 µM (inactive); in assay [2], > 100 µM (inactive); in [3] it was > 100 µM (inactive); in [4] it was 44 µM (inactive); in [5], 34.7 µM; in assay [6], > 100 µM (inactive). Moreover, the GI50 was 49.4 µM (inactive) in [7]; 51.2 µM (inactive) in assay [8]; 84.1 µM (inactive) in assay [9]; 49.1 µM (inactive) in assay [10]; 65 µM (inactive) in [11]; 84.5 µM (inactive) in assay [12]. Moreover, the GI50 was > 100 µM (inactive) in [13]; 61.4 µM (inactive) in assay [14]; 48.1 µM (inactive) in assay [15]; 41.3 µM (inactive) in assay [16]; 43.5 µM (inactive) in [17]; 75.2 µM (inactive) in [18]. For the same compound, the GI50 in [19] was 33.3 µM (inactive).

Take `COc1ccc(C2c3c[nH]nc3CC3CCCCC32)cc1` (stereo not given): the GI50 in [1] is 18.6 µM (inactive); in [2], 16.6 µM (inactive); in assay [3], 14.2 µM (inactive); in assay [4], 17.8 µM (inactive); in assay [5], 15.7 µM; in assay [7], 23.4 µM (inactive). Besides, the GI50 in assay [8] was 12.7 µM (inactive); in assay [9] it was 17.6 µM (inactive); in [10] it was 19.4 µM (inactive); in [11], 14.4 µM (inactive); in [12], 19.5 µM (inactive); in [13], 17.4 µM (inactive). The GI50 in assay [14] is 15.5 µM (inactive); in assay [15], 16.7 µM (inactive); in [16], 14.8 µM (inactive); in assay [20] it was 20.9 µM (inactive); in assay [18], 19.7 µM (inactive); in assay [19], 15.5 µM (inactive).

For the compound `Cc1cc(C)c(S(=O)(=O)N2CCN(S(=O)(=O)c3c(C)cc(C)cc3C)OCCCCCO2)c(C)c1`, the GI50 in [1] is > 100 µM (inactive); in assay [2] it was > 100 µM (inactive); in [3], > 100 µM (inactive); in assay [4], > 100 µM (inactive); in assay [5], more than 100 µM; in assay [6], 62.1 µM (inactive). Moreover, the GI50 in assay [7], in assay [8], in [9], in assay [10], in assay [11] and in [12] was > 100 µM (inactive) throughout. The GI50 in assay [13] is > 100 µM (inactive); in assay [14], > 100 µM (inactive); in assay [15], > 100 µM (inactive); in assay [16] it was 6.22 µM (inactive); in [17], > 100 µM (inactive); in assay [18], > 100 µM (inactive). In addition, the GI50 in assay [19] is > 100 µM (inactive).

For `CCCCN1C(=O)CC2[C@@H]3CCc4cc(OC)ccc4C3CC[C@]2(C)C1=O` (stereo not given in full), the GI50 was > 10 µM (inactive) in [1]; > 10 µM (inactive) in assay [2]; > 10 µM (inactive) in assay [3]; > 10 µM (inactive) in assay [4]; more than 10 µM in [5]; > 10 µM (inactive) in [7]. Also, the GI50 in assay [8], in assay [9], in assay [10], in assay [11], in assay [12] and in assay [13] was > 10 µM (inactive) each time. In addition, the GI50 is > 10 µM (inactive) in assay [14]; > 10 µM (inactive) in assay [15]; > 10 µM (inactive) in assay [16]; > 10 µM (inactive) in [17]; 6.85 µM (inactive) in assay [20]; > 10 µM (inactive) in assay [18]. In addition, the GI50 in [19] was > 10 µM (inactive).

As to `Nn1c(Nc2ccc(S(N)(=O)=O)cc2)nnc(/C=C/c2c(O)ccc3ccccc23)c1=O`, the GI50 in [1] is 24.4 µM (inactive); in [2], 14.9 µM (inactive); in assay [3] it was 22.9 µM (inactive); in assay [4], 16.3 µM (inactive); in [5] it was 12.8 µM; in assay [7] it was 19.9 µM (inactive). Also, the GI50 in assay [8] was 0.128 µM (active); in assay [9], 26.4 µM (inactive); in assay [10], 20.4 µM (inactive); in assay [11] it was 16.3 µM (inactive); in assay [12], 15.7 µM (inactive); in assay [14], 13 µM (inactive). Also, the GI50 in [15] was 15.3 µM (inactive); in assay [16] it was 47.2 µM (inactive); in assay [17], 24.3 µM (inactive); in assay [20], 8.77 µM (inactive); in assay [19], 39.9 µM (inactive).

For the compound `C/C(=N\c1cccc(Cl)c1)c1ccncc1`, the GI50 in assay [1] was > 100 µM (inactive); in assay [2], > 100 µM (inactive); in [3], > 100 µM (inactive); in assay [4], > 100 µM (inactive); in assay [5], more than 100 µM; in assay [6], > 100 µM (inactive). Also, the GI50 in [7], in assay [8], in [9], in assay [10], in assay [11] and in assay [12] was > 100 µM (inactive) in each case. Further, the GI50 in assay [13], in assay [14], in assay [15], in assay [16], in assay [17] and in assay [18] was > 100 µM (inactive) in each case. Also, in assay [19], the GI50 was > 100 µM (inactive).

With `CC(=O)O[C@H]1C(=O)[C@@]2(C)[C@H]([C@H](OC(=O)c3ccccc3)[C@]3(O)C[C@H](OC(=O)[C@H](O)[C@@H](NC(=O)CC(C)(C)C)c4ccccc4)C(C)=C1C3(C)C)C1(OC(C)=O)CO[C@@H]1C[C@@H]2O` (stereo not given in full), the GI50 in assay [1] is 0.0251 µM (active); in [2] it was 0.0968 µM (active); in [3], 0.128 µM (active); in assay [4], < 0.001 µM (active); in [5], 0.223 µM; in assay [6] it was 0.0106 µM (active). For the same compound, the GI50 is < 0.001 µM (active) in assay [7]; 0.00154 µM (active) in assay [8]; < 0.001 µM (active) in assay [10]; 0.1 µM (active) in assay [11]; 0.0194 µM (active) in [13]; > 10 µM (inactive) in assay [15]. Also, the GI50 in [16] is 0.00183 µM (active); in [17] it was 0.0208 µM (active); in [18], 0.047 µM (active); in assay [19], 0.00441 µM (active).
